These results are taken from ChEMBL document CHEMBL1212743, “Absorption, pharmacokinetics, and safety of triclosan after dermal administration” (Antimicrob Agents Chemother, 2010).

Common to all, as to assay type: ADME, organism-based
Data set [1] in a line: Excretion in percutaneously dosed healthy human urine at 1166 mg up to 48 hrs. To be noted: topical or ocular, read-out: Activity.
Data set [2] can be described thus: Apparent half-life of the terminal disposition phase half life in percutaneously dosed healthy human at 1166 mg. To be noted: in vivo, topical or ocular, read-out: t1/2 lambda z (converted).
Data set [3] is described as follows: Absorption in percutaneously dosed healthy human at 1166 mg. To be noted: in vivo, topical or ocular, read-out: Activity.
Another data set deals with Homo sapiens. The data set is described as follows: Time to reach maximum urine excretion rate in percutaneously dosed healthy human at 1166 mg. To be noted: in vivo, topical_or_ocular.

Regarding `Oc1cc(Cl)ccc1Oc1ccc(Cl)cc1Cl` [TRICLOSAN], the dose excreted at 48 h in data set [1] was found to be 4.9%. In addition, in data set [2], the half-life was 10.8 h. Besides, in data set [3], the Fa was determined as 5.9%. For the same compound, the Time with Homo sapiens was determined as 11 h.
